Among the data in patent US20070027079A1, “GHRP 2 strips” (priority 2005, published 2007) are Solubility values, retold here.

This series in a line: Certificate of analysis GHRP-2: solubility. As to conditions: specification: soluble in water and 1% acetic acid at a concentration of ≧1 mg/ml to give a clear, colorless solution; batch 6P-20030403. Format: physicochemical.

Where a SMILES comes first, the peptide text is derived from it. [ ]: non-standard residue; d: D form. d2Nal = N[C@H](Cc1ccc2ccccc2c1)C(=O)O

As for `C[C@H](NC(=O)[C@@H](Cc1ccc2ccccc2c1)NC(=O)[C@@H](C)N)C(=O)N[C@@H](Cc1c[nH]c2ccccc12)C(=O)N[C@H](Cc1ccccc1)C(=O)N[C@@H](CCCCN)C(N)=O` [GHRP-2, D-Ala-D-Nal-Ala-Trp-D-Phe-Lys-NH2] (H-[dA][d2Nal]AW[dF]K-NH2), the Solubility result is listed as “Complies”.
